Consider 20 compounds from article PMC7571155, “Design, Synthesis and Biological Investigation of Flavone Derivatives as Potential Multi-Receptor Atypical Antipsychotics” (Molecules, 2020).

Series [1] relates to MK-801-induced hyperactivity in mice. Nature of the series: MK-801-induced hyperactivity. Particulars: Mus musculus, po, MK-801 0.3 mg/kg sc, read-out: MK-80: MK-801-induced hyperactivity ED50. It counts as in vivo.
Experimental: Apomorphine-Induced Climbing [1-3].
Animals were placed in Plexiglas cages
for evaluating locomotor activity.
5.3 Catalepsy Test [1-3].
Catalepsy was evaluated on a metal
(§1) A mean immobility score of 30 s was used
(§2) as the criterion for the presence of catalepsy.
For series [2], the system named is APO-induced climbing in mice. Nature of the series: Apomorphine-induced climbing. It counts as in vivo. Conditions: Mus musculus, po, apomorphine 1.0 mg/kg sc.
Experimental: Apomorphine-Induced Climbing [1-3].
Animals were placed in Plexiglas cages
for evaluating locomotor activity.
5.3 Catalepsy Test [1-3].
Catalepsy was evaluated on a metal
as §1, §2
Series [3] in a line: in vivo. Particulars: mouse, po.
The target in series [4] is D2 receptor (Rattus norvegicus, UniProt P61169). Nature of the series: D2 receptor radioligand binding (3H-spiperone). Conditions: for Ki: Receptor Affinity Ki ± SEM D2, rat striatum, 3H-spiperone, mean ± SEM of three experiments; for potency ratio between D2 and 5-HT1A, 5-HT2A: ratio of Ki values.
The target in series [5] is 5-HT2A receptor (Rattus norvegicus, UniProt P14842). Nature of the series: 5-HT2A receptor radioligand binding (3H-ketanserin). Conditions: Receptor Affinity Ki ± SEM 5-HT2A, rat brain cortex, 3H-ketanserin; mean ± SEM of three experiments.
Series [6] deals with T1, 5-HT2C receptor (Rattus norvegicus, UniProt P08909).
T1 sequence (P08909 33-460): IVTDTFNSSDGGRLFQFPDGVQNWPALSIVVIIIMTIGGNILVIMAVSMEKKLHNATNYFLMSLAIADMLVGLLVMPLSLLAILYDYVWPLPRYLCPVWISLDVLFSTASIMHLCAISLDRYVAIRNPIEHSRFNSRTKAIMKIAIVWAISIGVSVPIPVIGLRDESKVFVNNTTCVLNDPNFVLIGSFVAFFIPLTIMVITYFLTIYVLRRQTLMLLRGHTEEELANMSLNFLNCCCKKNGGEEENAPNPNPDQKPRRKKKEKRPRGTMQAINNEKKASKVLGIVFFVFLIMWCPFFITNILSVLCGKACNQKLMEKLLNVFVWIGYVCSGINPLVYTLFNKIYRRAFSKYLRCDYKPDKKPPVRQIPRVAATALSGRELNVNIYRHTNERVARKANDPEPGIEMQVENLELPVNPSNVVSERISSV
Nature of the series: 5-HT2C receptor radioligand binding (3H-mesulergine). Particulars: rat brain cortex, mean ± SEM of three experiments, read-out: Receptor Affinity Ki ± SEM 5-HT2C.

In series [7] the target is D3 receptor (Rattus norvegicus, UniProt P19020). Nature of the series: D3 receptor radioligand binding (3H-7-OH-DPAT).
In series [8] the target is H1 receptor (Cavia porcellus, UniProt P31389). Nature of the series: H1 receptor radioligand binding (3H-mepyramine). Particulars: guinea pig cerebellum, mean ± SEM of three experiments, read-out: Receptor Affinity Ki ± SEM H1.
Series [9] deals with hERG potassium channels (Homo sapiens, UniProt Q12809). Nature of the series: hERG potassium channel block, patch clamp in HEK cells. Background: Block of hERG is tested as a sign of cardiac risk.
The target in series [10] is α1 receptor. Nature of the series: α1 receptor radioligand binding (3H-prazosin). Conditions: rat cerebral cortex, mean ± SEM of three experiments, read-out: Receptor Affinity Ki ± SEM α1.
In series [11] the target is T2, D2L receptor (Homo sapiens, UniProt P14416).
T2 construct: expressed in transfected cells; host or cells: HEK293
Nature of the series: Intrinsic activity, FLIPR calcium assay, HEK293/D2L. It counts as cell-based.

Series [12] concerns the target T3, 5-HT2A receptor (Homo sapiens, UniProt P28223).
T3 construct: expressed in transfected cells; host or cells: HEK293
Nature of the series: Intrinsic activity, FLIPR calcium assay, HEK293/5-HT2A. Particulars: HEK293, read-out: Inhibition (10 μM, %), 5-HT2A, antagonist mode, 10 μM, n = 3. The series is classed as cell-based.

Chain of hERG potassium channels (Q12809 whole entry): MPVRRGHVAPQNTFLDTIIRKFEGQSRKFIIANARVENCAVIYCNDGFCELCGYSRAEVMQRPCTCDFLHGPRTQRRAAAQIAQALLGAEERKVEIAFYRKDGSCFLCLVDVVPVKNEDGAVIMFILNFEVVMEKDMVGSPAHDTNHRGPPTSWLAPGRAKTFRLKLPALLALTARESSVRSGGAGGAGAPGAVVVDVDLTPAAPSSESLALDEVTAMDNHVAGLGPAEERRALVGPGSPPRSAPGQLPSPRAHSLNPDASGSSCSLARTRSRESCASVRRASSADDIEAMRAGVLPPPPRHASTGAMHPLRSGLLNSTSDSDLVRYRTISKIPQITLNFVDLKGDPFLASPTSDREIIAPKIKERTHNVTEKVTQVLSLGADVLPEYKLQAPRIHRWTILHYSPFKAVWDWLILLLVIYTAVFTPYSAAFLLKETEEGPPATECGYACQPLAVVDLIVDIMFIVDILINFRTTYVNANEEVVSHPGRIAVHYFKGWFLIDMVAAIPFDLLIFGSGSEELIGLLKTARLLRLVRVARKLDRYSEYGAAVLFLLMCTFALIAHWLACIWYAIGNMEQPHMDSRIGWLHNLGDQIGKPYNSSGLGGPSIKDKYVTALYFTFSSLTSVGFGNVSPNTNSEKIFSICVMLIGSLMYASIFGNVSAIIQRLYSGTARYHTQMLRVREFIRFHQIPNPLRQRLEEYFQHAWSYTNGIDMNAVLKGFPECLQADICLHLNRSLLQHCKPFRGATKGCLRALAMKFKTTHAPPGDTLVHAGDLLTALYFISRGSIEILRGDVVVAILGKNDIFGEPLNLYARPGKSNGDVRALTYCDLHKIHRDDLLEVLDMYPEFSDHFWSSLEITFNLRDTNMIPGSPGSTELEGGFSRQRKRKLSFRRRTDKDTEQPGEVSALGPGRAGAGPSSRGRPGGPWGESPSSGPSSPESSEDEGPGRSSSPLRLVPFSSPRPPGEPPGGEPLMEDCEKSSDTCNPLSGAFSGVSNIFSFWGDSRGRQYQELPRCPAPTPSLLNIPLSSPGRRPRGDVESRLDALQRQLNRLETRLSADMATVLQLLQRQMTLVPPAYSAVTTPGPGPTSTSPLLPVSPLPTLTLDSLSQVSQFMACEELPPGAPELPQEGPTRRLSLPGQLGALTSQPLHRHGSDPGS
Chain of D3 receptor (P19020 whole entry): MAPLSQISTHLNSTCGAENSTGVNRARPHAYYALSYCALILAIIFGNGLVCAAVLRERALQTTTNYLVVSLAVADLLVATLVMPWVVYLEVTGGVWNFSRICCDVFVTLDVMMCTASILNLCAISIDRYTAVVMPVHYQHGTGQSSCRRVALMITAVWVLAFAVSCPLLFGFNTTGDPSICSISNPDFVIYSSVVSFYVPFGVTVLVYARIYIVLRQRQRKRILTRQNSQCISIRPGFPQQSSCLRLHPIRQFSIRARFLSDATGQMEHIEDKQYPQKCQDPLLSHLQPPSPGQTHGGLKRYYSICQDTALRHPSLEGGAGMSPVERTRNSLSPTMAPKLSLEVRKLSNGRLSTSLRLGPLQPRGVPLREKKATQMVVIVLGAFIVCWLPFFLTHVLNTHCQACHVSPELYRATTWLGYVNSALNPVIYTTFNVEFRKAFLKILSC
T2 sequence (P14416 whole entry): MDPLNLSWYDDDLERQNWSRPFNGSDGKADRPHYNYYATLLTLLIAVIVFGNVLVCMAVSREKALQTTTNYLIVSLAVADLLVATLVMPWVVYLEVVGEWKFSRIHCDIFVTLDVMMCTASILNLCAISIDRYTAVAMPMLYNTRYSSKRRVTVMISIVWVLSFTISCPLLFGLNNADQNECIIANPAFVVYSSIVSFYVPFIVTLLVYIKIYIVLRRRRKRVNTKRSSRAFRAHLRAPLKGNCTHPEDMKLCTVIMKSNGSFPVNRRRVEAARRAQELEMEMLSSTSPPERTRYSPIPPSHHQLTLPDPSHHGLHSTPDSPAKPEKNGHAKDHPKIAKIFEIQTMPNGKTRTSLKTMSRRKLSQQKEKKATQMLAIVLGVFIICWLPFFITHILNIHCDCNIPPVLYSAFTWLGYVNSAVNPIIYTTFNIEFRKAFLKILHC
Chain of 5-HT2A receptor (Rattus norvegicus, UniProt P14842) (P14842 whole entry): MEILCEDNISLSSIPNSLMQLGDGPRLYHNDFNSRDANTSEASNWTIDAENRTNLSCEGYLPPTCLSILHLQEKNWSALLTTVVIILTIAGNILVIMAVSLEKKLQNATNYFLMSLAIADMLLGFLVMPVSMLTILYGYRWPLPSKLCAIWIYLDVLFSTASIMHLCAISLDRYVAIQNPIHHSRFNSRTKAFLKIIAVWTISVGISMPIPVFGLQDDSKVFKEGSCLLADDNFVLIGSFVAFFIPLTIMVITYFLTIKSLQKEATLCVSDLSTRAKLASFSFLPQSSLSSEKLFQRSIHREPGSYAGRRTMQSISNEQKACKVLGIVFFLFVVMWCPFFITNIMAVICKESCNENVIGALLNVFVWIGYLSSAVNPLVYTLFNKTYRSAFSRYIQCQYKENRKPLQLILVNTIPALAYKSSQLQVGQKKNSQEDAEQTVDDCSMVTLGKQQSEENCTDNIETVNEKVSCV
Chain of D2 receptor (P61169 whole entry): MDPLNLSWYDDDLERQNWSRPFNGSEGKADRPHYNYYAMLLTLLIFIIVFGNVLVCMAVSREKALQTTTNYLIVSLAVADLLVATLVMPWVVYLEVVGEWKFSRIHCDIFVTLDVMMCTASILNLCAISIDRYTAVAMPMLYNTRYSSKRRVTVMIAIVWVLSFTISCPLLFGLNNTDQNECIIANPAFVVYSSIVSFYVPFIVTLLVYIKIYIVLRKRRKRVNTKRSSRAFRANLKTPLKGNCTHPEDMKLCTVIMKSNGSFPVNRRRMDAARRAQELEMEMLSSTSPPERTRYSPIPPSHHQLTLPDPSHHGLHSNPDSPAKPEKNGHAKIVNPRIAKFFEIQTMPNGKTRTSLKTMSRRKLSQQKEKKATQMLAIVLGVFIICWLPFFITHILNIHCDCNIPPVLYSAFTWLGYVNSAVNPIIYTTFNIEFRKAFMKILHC
Chain of H1 receptor (P31389 whole entry): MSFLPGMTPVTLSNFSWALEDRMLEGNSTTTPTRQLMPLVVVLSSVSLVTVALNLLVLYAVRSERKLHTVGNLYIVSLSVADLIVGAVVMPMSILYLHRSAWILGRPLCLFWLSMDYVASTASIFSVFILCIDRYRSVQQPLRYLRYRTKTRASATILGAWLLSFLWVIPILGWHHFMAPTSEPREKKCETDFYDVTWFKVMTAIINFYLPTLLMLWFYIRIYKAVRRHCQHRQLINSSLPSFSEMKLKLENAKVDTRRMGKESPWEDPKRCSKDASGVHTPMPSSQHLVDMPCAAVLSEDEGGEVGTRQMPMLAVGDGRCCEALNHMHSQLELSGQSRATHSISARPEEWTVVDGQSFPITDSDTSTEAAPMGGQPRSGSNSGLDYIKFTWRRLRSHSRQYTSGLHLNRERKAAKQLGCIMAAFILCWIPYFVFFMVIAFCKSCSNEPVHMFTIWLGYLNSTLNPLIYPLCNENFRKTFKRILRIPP
T3 sequence (P28223 whole entry): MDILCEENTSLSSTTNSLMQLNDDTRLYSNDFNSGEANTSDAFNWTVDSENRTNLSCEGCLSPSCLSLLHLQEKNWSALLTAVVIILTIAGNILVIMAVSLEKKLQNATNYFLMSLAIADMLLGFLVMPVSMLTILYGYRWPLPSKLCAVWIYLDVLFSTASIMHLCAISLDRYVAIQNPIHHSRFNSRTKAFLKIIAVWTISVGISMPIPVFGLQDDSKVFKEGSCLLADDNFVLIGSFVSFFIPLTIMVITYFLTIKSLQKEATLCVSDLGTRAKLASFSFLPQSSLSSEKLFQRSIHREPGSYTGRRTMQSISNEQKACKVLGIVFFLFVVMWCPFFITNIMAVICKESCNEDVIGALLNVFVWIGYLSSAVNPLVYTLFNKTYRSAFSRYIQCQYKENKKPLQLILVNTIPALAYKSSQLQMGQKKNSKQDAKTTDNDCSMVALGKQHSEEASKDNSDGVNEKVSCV

In the case of `CN1CCN(C2=Nc3cc(Cl)ccc3Nc3ccccc32)CC1` [Clozapine, reference compound], the ED50 – broadly, the midpoint of the dose-response relation – in [1] was 2.28 mg/kg; in series [2], 17.9 mg/kg; in series [3] it was 50 mg/kg.

Regarding `CC1(C)CC(=O)c2ccc(OCCCN3CCC(c4noc5cc(F)ccc45)CC3)cc2O1` [Compound 6l, 7-(3-(4-(6-Fluorobenzo[d]isoxazol-3-yl)piperidin-1-yl)propoxy)-2,2-dimethylchroman-4-one], the melting point (usually the temperature, or range, at which the solid turns liquid) was in the range of 116 to 118 °C. For the same compound, in [4], the Ki (commonly a dissociation constant, usually derived from enzyme kinetics or from competition with a known ligand) turned out to be 18.6 ± 2.3 nM. In addition, the Ki in series [5] is 6.7 ± 0.7 nM.

As to `COc1ccccc1N1CCN(CCCOc2ccc3c(c2)OC2(CCCC2)CC3=O)CC1` [Compound 9a, 7-(3-(4-(2-Methoxyphenyl)piperazin-1-yl)propoxy) spiro[chromane-2,1′-cyclopentan]-4-one], the melting point lay in the range of 128 to 130 °C. Further, the Ki in series [4] was 3850 ± 328 nM. The compound also displayed a Ki in [5] of 72 ± 6.8 nM.

For `COc1ccccc1N1CCN(CCCCOc2ccc3c(c2)OC2(CCCC2)CC3=O)CC1` [Compound 9b, 7-(4-(4-(2-Methoxyphenyl)piperazin-1-yl)butoxy) spiro[chromane-2,1′-cyclopentan]-4-one], the melting point is 96 to 98 °C. This compound also displayed a Ki in series [4] of 3790 ± 409 nM. In series [5], the Ki stood at 61.7 ± 8.6 nM.

The compound `O=C1CC2(CCCC2)Oc2cc(OCCCN3CCC(c4noc5cc(F)ccc45)CC3)ccc21` [Compound 9c, 7-(3-(4-(6-Fluorobenzo[d]isoxazol-3-yl)piperidin-1-yl)propoxy)spiro[chromane-2,1′-cyclopentan]-4-one] displayed a melting point of 91 to 93 °C. This compound also had a Ki in [4] of 18.9 ± 2.1 nM. For the same compound, in [5], the affinity, expressed as Ki, was 8.3 ± 0.9 nM.

Turning to `O=C1CC2(CCCC2)Oc2cc(OCCCCN3CCC(c4noc5cc(F)ccc45)CC3)ccc21` [Compound 9d, 7-(4-(4-(6-Fluorobenzo[d]isoxazol-3-yl)piperidin-1-yl)butoxy)spiro[chromane-2,1′-cyclopentan]-4-one], the melting point is 103 to 105 °C. For the same compound, in series [4], affinity was put at a Ki of 15.7 ± 1.9 nM; the “potency ratio between D2 and 5-HT1A, 5-HT2A” value is listed as “less than 5”. For the same compound, in series [6], the Ki came out at 426 ± 47.8 nM. The Ki in [7] is 42.6 ± 5.3 nM. The Ki in series [8] turned out to be 784 ± 98.3 nM. In addition, in series [9], the IC50 (in general, the concentration that inhibits the measured activity by half) turned out to be 3380 ± 352 nM. For the same compound, in series [5], the Ki is 8.5 ± 0.7 nM. Moreover, in [10], the Ki turned out to be 162 ± 57.1 nM.

Compound `COc1ccccc1N1CCN(CCCOc2ccc3c(c2)OC2(CCCCC2)CC3=O)CC1` [Compound 9e, 7-(3-(4-(2-Methoxyphenyl)piperazin-1-yl)propoxy)spiro[chromane-2,1′-cyclohexan]-4-one] gave a melting point of 105 to 107 °C. Moreover, affinity in series [4] was put at a Ki of 2050 ± 229 nM. In [5], the Ki stood at 93.5 ± 7.9 nM.

`O=C1CC2(CCCCC2)Oc2cc(OCCCN3CCN(c4ccccc4C(F)(F)F)CC3)ccc21` [Compound 9f, 7-(3-(4-(2-(Trifluoromethyl)phenyl)piperazin-1-yl)propoxy)spiro[chromane-2,1′-cyclohexan]-4-one] came in with a melting point of 138 to 140 °C. This compound displayed a Ki in [4] of 915 ± 90.3 nM. The compound also came in with a Ki in series [5] of 76.7 ± 9.4 nM.

Regarding `O=C1CC2(CCCCC2)Oc2cc(OCCCN3CCC(c4noc5cc(F)ccc45)CC3)ccc21` [Compound 9g, 7-(3-(4-(6-Fluorobenzo[d]isoxazol-3-yl)piperidin-1-yl)propoxy)spiro[chromane-2,1′-cyclohexan]-4-one], the melting point fell in the range of 96 to 98 °C. Further, in series [4], the affinity corresponds to a Ki of 18.4 ± 1.8 nM; the “potency ratio between D2 and 5-HT1A, 5-HT2A” value is given as “less than 5”. In addition, the Ki in [6] is 401 ± 55.6 nM. For the same compound, the Ki in [7] was 35.2 ± 2.8 nM. The Ki in series [8] was determined as 909 ± 78.5 nM. In addition, the midpoint of inhibition in [9], the IC50, lay at 3020 ± 291 nM. In [5], this compound registered an inhibition constant (Ki) of 9.1 ± 1.1 nM. The Ki in series [10] amounted to 138 ± 39.8 nM.

In the case of `O=C1CC2(CCCCC2)Oc2cc(OCCCCN3CCC(c4noc5cc(F)ccc45)CC3)ccc21` [Compound 9h, 7-(4-(4-(6-Fluorobenzo[d]isoxazol-3-yl)piperidin-1-yl)butoxy)spiro[chromane-2,1′-cyclohexan]-4-one], the Ki in series [4] came to 17 ± 2.3 nM; in series [6], 528 ± 68.5 nM; in series [7], 38.6 ± 3.7 nM; in [8], 819 ± 91.8 nM; in series [5], 7.3 ± 0.4 nM; in series [10] it was 102 ± 50.6 nM. Moreover, half-maximal inhibition in series [9] (IC50) required 3980 ± 411 nM.

`Cc1cccc(N2CCN(CCCCOc3ccc4c(c3)OC3(CCCCC3)CC4=O)CC2)c1C` [Compound 9i, 7-(4-(4-(2,3-Dimethylphenyl)piperazin-1-yl)butoxy)spiro[chromane-2,1′-cyclohexan]-4-one] displayed a melting point of 138 to 140 °C. This compound had a Ki in series [4] of 154 ± 19.6 nM. For the same compound, the Ki in series [5] worked out at 67.5 ± 7.4 nM.

Compound `O=C1CC2(CCCCC2)Oc2cc(OCCCCN3CCN(c4cccc(Cl)c4Cl)CC3)ccc21` [Compound 9j, 7-(4-(4-(2,3-Dichlorophenyl)piperazin-1-yl)butoxy)spiro[chromane-2,1′-cyclohexan]-4-one] gave a melting point of 119 to 121 °C. Besides, the Ki in series [4] was 81.7 ± 9.7 nM. This compound also showed a Ki in series [5] of 35.8 ± 5.2 nM.

As to `O=C1CC2(CCCCC2)Oc2cc(OCCCCN3CCC(c4nsc5ccccc45)CC3)ccc21` [Compound 9k, 7-(4-(4-(Benzo[d]isothiazol-3-yl)piperidin-1-yl)butoxy)spiro[chromane-2,1′-cyclohexan]-4-one], the melting point was 129 to 130 °C. Besides, affinity in [4] was put at a Ki of 35.1 ± 4.7 nM. Also, the Ki in series [5] was found to be 75.6 ± 8.6 nM.

On to `Cc1cc2c(cc1OCCCCN1CCC(c3noc4cc(F)ccc34)CC1)OCCC2=O` [Compound 13c, 7-(4-(4-(6-Fluorobenzo[d]isoxazol-3-yl)piperidin-1-yl)butoxy)-6-methylchroman-4-one], for which the melting point fell in the range of 91 to 93 °C. Also, the Ki in series [4] came to 25.8 ± 3.9 nM. Also, affinity in [5] was put at a Ki of 15.9 ± 2.3 nM.

Consider `CC1CC(=O)c2ccc(OCCCCN3CCC(c4noc5cc(F)ccc45)CC3)cc2O1` (centres unmarked) [Compound 16a, 7-(4-(4-(6-Fluorobenzo[d]isoxazol-3-yl)piperidin-1-yl)butoxy)-2-methylchroman-4–one], for which the melting point lay in the range of 95 to 97 °C. In series [4], this compound returned a Ki of 19.7 ± 2.7 nM. In series [5], this compound came in with a Ki of 7.9 ± 0.5 nM.

In turn, `CC1CC(=O)c2ccc(OCCCCN3CCC(c4noc5cc(F)ccc45)CC3)c(Cl)c2O1` (centres unmarked) [Compound 16b, 8-Chloro-7-(4-(4-(6-fluorobenzo[d]isoxazol-3-yl)piperidin-1-yl)butoxy)-2-methylchroman-4-one] yielded a melting point of 99 to 101 °C. This compound also gave a Ki in series [4] of 21.4 ± 2.4 nM. In series [5], this compound registered a Ki of 8.1 ± 1.1 nM.

Compound `CC1Oc2cc(OCCCCN3CCC(c4noc5cc(F)ccc45)CC3)ccc2C(=O)C1C` (centres unmarked) [Compound 21, 7-(4-(4-(6-fluorobenzo[d]isoxazol-3-yl)piperidin-1-yl)butoxy)-2,3-dimethylchroman-4-one] returned a melting point of 82 to 84 °C. The compound also returned a Ki in series [4] of 28.4 ± 3.2 nM. In series [5], this compound showed a Ki of 2.4 ± 1.9 nM.

`CN1CCc2cc(Cl)c(O)cc2[C@@H](c2ccccc2)C1` [SCH23390]: the IC50 in series [11] (D2L, antagonist mode, read-out: IC50) is 31.6 nM. Besides, the inhibition – broadly, the percentage by which the read-out fell short of the control – at 10 µM in series [11] (HEK293, read-out: Inhibition (10 μM, %), D2L, antagonist mode, 10 μM, n = 3) stood at 99.1 ± 3.2%.

On to `NCCc1ccc(O)c(O)c1` [dopamine], for which the “Activation (10 μM, %)” value in series [11] (D2L, agonist mode, 10 μM, n = 3) amounted to 101.3 ± 5.3%.

In the case of `O=C(c1ccc(F)cc1)C1CCN(CCn2c(=O)[nH]c3ccccc3c2=O)CC1` [ketanserin, reference compound], the inhibition at 10 µM in [12] worked out at 98.2 ± 2.6%.
